Values of other authors in patent publication US9006272B2, “Pharmaceutical compositions and method for treating inflammation in cattle and other animals” (Intervet Inc., priority 2006, dated 2015).

Conditions: background statement

lipid solubility: very poor
SMILES: Cc1c(Nc2ncccc2C(=O)O)cccc1C(F)(F)F [flunixin meglumine]
